Columns and labels:
plasma citrulline = test: Plasma citrulline levels in human Crohn's Disease patients treated with Teduglutide (randomized, double-blind, placebo-controlled clinical study); type: in vivo; conditions: for Baseline plasma citrulline levels, mean: baseline (Dosing Day 1), subjects with moderately active CD; for 2-week plasma citrulline levels, mean: week 2; for 2-week plasma citrulline levels, mean / 4-week plasma citrulline levels, mean / 8-week plasma citrulline levels, mean: subcutaneous injection daily, CD subjects; for 4-week plasma citrulline levels, mean: week 4; for 8-week plasma citrulline levels, mean: week 8
Method: In a further experiment plasma citrulline levels in human patients treated with Teduglutide for the treatment of Crohn's Disease (CD) were determined. Subjects with moderately active CD were treated in a randomized, double-blind, placebo-controlled clinical study to assess the activity of 3 different doses of Teduglutide compared to placebo. The primary objective of the study was to assess the efficacy and the secondary objectives were to assess the safety and tolerability of the different doses of Teduglutide as compared to placebo. Following a screening visit to evaluate whether subjects met the inclusion/exclusion criteria, the study ran over a period of up to 12 weeks, including visits at baseline/Dosing Day 1, Weeks 2, 4, and 8, and one at the end of the follow-up period at Week 12. Teduglutide doses administered by subcutaneous injection were 0.05, 0.10 and 0.20 mg/kg on a daily basis for 8 weeks. The primary efficacy variable used was the percentage of subjects with a response, defined as a 100-point or greater reduction in the subject's CDAI score at dosing Week 8 from their baseline score or a CDAI score less than 150 at Week 8.

arrhythmia incidence = conditions: CAST, cited from earlier work; for mortality in the drug treatment groups: fold greater
bone mineral density = conditions: administration of fluoride, cited from earlier work

## CC[C@H](C)[C@H](NC(=O)[C@H](Cc1ccccc1)NC(=O)[C@H](CC(=O)O)NC(=O)[C@H](CCCNC(=N)N)NC(=O)[C@H](C)NC(=O)[C@H](C)NC(=O)[C@H](CC(C)C)NC(=O)[C@H](CC(N)=O)NC(=O)[C@H](CC(=O)O)NC(=O)[C@H](CC(C)C)NC(=O)[C@@H](NC(=O)[C@@H](NC(=O)[C@H](CC(N)=O)NC(=O)[C@H](CCSC)NC(=O)[C@H](CCC(=O)O)NC(=O)[C@H](CC(=O)O)NC(=O)[C@H](CO)NC(=O)[C@H](Cc1ccccc1)NC(=O)[C@H](CO)NC(=O)CNC(=O)[C@H](CC(=O)O)NC(=O)CNC(=O)[C@@H](N)Cc1c[nH]cn1)[C@@H](C)O)[C@@H](C)CC)C(=O)N[C@@H](CC(N)=O)C(=O)N[C@@H](Cc1c[nH]c2ccccc12)C(=O)N[C@@H](CC(C)C)C(=O)N[C@H](C(=O)N[C@@H](CCC(N)=O)C(=O)N[C@H](C(=O)N[C@@H](CCCCN)C(=O)N[C@H](C(=O)N[C@H](C(=O)N[C@@H](CC(=O)O)C(=O)O)[C@@H](C)O)[C@@H](C)CC)[C@@H](C)O)[C@@H](C)CC [Teduglutide]
Plasma citrulline; 0.05 mg group
  Baseline plasma citrulline levels, mean: 21.6 µmol/L
  2-week plasma citrulline levels, mean: 30.3 µmol/L
  4-week plasma citrulline levels, mean: 34.5 µmol/L
  8-week plasma citrulline levels, mean: 37.9 µmol/L
Plasma citrulline; 0.10 mg group
  Baseline plasma citrulline levels, mean: 24.7 µmol/L
  2-week plasma citrulline levels, mean: 36.9 µmol/L
  4-week plasma citrulline levels, mean: 49.1 µmol/L
  8-week plasma citrulline levels, mean: 46.0 µmol/L
Plasma citrulline; 0.20 mg group
  Baseline plasma citrulline levels, mean: 24.5 µmol/L
  2-week plasma citrulline levels, mean: 32.7 µmol/L
  4-week plasma citrulline levels, mean: 38.8 µmol/L
  8-week plasma citrulline levels, mean: 41.8 µmol/L
Plasma citrulline; from baseline to week 8, teduglutide-treated groups, placebo group remains the same
  mean citrulline level, change: increases

## COc1ccc(C(=O)Nc2ccccc2CCC2CCCCN2C)cc1 (stereo not shown) [encainide]
Arrhythmia incidence
  arrhythmia incidence: significant reduction
  mortality in the drug treatment groups: 3 fold

## O=C(NCC1CCCCN1)c1cc(OCC(F)(F)F)ccc1OCC(F)(F)F (stereo not shown) [flecainide]
Arrhythmia incidence
  arrhythmia incidence: significant reduction
  mortality in the drug treatment groups: 3 fold

## F [fluoride]
Bone mineral density; also weaker bone strength
  fracture risk: increased fracture risk
Bone mineral density
  bone mineral density: significant increases

Source: patent publication US20070184554A1, “Biomarker of improved intestinal function” (NPS ALLELIX CORP., priority 2005, published 2007)
